Columns and labels:
Wee-1 kinase = biological target: T1, Wee-1 kinase (Homo sapiens, UniProt P30291); assay: Inhibitory activity against Wee-1 kinase (Lanthra Screen Wee-1 kinase kit, Tracer 178); type: binding; details: Wee-1 kinase 5 nM, Tracer 178 50 nM, 1 h room temperature
T1 construct: purchased Invitrogen
Experimental: Example 342. Assay for Inhibitory Activity of Compounds Against Wee-1 Kinase
The inhibitory activity of compounds against Wee-1 kinase was determined by using the Lanthra Screen Wee-1 kinase kit (Invitrogen). 5 μL of the compound diluted in a gradient with DMSO, 5 μL. of Wee-1 kinase (at a final concentration of 5 nM), 5 μL of an Eu-Anti-GST antibody (at a final concentration of 2 nM) mixture and 5 μL of kinase Tracer 178 (at a final concentration of 50 nM) were mixed well. The plate was read after incubation at room temperature for one hour. For comparison with the DMSO solvent control group, IC50 for the inhibition activity of the compounds against Wee-1 kinase was calculated.

HT29 cells = assay: Antiproliferative activity against HT29 cells (Cell Titer-Lumi, ATP content); type: cell-based; details: Homo sapiens, HT-29, 72 after compound addition, read-out: HT-29 cells Anti-proliferative activity (IC50 for the inhibition against HT-29 cell growth)
Experimental: Example 343. Assay for Antiproliferative Activity Against HT29 Cells
3000 HT29 cells were seed in a 384-well plate (Fisher 142762). After the cells adhered to the wall overnight, the compounds diluted in a gradient were added. 72 later, Cell Titer-Lumi (Beyotime C0068XL) was added to determine the content of ATP in the cells. The growth of the cells was evaluated, and the IC50 for the inhibition of the compounds against cell growth was calculated.

T1 sequence (P30291 whole entry): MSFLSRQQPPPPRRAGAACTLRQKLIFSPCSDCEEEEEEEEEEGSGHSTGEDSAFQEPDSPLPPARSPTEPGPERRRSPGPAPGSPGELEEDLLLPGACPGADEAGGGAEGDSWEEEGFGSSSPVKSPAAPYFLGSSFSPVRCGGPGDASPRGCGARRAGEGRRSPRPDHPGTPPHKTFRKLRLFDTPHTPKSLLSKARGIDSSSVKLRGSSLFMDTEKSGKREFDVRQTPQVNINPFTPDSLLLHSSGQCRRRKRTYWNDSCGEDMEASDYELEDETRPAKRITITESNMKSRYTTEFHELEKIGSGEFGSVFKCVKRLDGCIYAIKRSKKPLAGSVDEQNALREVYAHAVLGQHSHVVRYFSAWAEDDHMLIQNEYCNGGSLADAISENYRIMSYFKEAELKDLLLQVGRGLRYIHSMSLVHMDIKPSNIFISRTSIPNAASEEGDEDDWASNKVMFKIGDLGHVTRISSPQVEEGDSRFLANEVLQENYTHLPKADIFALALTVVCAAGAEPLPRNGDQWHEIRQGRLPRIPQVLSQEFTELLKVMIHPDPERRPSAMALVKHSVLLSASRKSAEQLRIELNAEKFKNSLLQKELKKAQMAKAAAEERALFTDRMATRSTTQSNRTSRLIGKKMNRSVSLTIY

Compound | IC50 (Wee-1 kinase) [nM] | IC50 (HT29 cells) [nM]
C=CCn1c(=O)c2cnc(Nc3cc(C)c(N4CCNCC4)c(F)c3)nc2n1-c1ccc(=O)n(C(C)C)n1 [Compound 55] | ≤ 30 | ≤ 1000
C=CCn1c(=O)c2cnc(Nc3cc(C)c(N4CCN(C)CC4)c(F)c3)nc2n1-c1ccc(=O)n(C(C)C)n1 [Compound 56] | ≤ 30 | ≤ 1000
C=CCn1c(=O)c2cnc(Nc3cc(C)c(N4CCNCC4)c(Cl)c3)nc2n1-c1ccc(=O)n(C(C)C)n1 [Compound 57] | ≤ 30 | ≤ 1000
C=CCn1c(=O)c2cnc(Nc3cc(C)c(N4CCN(C)CC4)c(Cl)c3)nc2n1-c1ccc(=O)n(C(C)C)n1 [Compound 58] | ≤ 30 | ≤ 1000
C=CCn1c(=O)c2cnc(Nc3cc(F)c(N4CCNCC4)c(Cl)c3)nc2n1-c1ccc(=O)n(C(C)C)n1 [Compound 59] | ≤ 30 | ≤ 1000
C=CCn1c(=O)c2cnc(Nc3cc(F)c(N4CCN(C)CC4)c(Cl)c3)nc2n1-c1ccc(=O)n(C(C)C)n1 [Compound 60] | ≤ 30 | ≤ 1000
C=CCn1c(=O)c2cnc(Nc3cc(Cl)c(N4CCNCC4)c(Cl)c3)nc2n1-c1ccc(=O)n(C(C)C)n1 [Compound 61] | ≤ 30 | ≤ 1000
C=CCn1c(=O)c2cnc(Nc3cc(Cl)c(N4CCN(C)CC4)c(Cl)c3)nc2n1-c1ccc(=O)n(C(C)C)n1 [Compound 62] | ≤ 30 | ≤ 1000
C=CCn1c(=O)c2cnc(Nc3cc(F)c(N4CCNCC4)c(OC)c3)nc2n1-c1ccc(=O)n(C(C)C)n1 [Compound 63] | ≤ 30 | ≤ 1000
C=CCn1c(=O)c2cnc(Nc3cc(F)c(N4CCN(C)CC4)c(OC)c3)nc2n1-c1ccc(=O)n(C(C)C)n1 [Compound 64] | ≤ 30 | ≤ 1000
C=CCn1c(=O)c2cnc(Nc3cc(Cl)c(N4CCNCC4)c(OC)c3)nc2n1-c1ccc(=O)n(C(C)C)n1 [Compound 65] | ≤ 30 | ≤ 1000
C=CCn1c(=O)c2cnc(Nc3cc(Cl)c(N4CCN(C)CC4)c(OC)c3)nc2n1-c1ccc(=O)n(C(C)C)n1 [Compound 66] | ≤ 30 | ≤ 1000
C=CCn1c(=O)c2cnc(Nc3cccc(N4CCNCC4)c3)nc2n1-c1ccc(=O)n(C(C)C)n1 [Compound 67] | ≤ 30 | ≤ 1000
C=CCn1c(=O)c2cnc(Nc3cccc(N4CCN(C)CC4)c3)nc2n1-c1ccc(=O)n(C(C)C)n1 [Compound 68] | ≤ 30 | ≤ 1000
C=CCn1c(=O)c2cnc(Nc3cc(C)cc(N4CCNCC4)c3)nc2n1-c1ccc(=O)n(C(C)C)n1 [Compound 69] | ≤ 30 | ≤ 1000
C=CCn1c(=O)c2cnc(Nc3cc(C)cc(N4CCN(C)CC4)c3)nc2n1-c1ccc(=O)n(C(C)C)n1 [Compound 70] | ≤ 30 | ≤ 1000
C=CCn1c(=O)c2cnc(Nc3cc(F)cc(N4CCNCC4)c3)nc2n1-c1ccc(=O)n(C(C)C)n1 [Compound 71] | ≤ 30 | ≤ 1000
C=CCn1c(=O)c2cnc(Nc3cc(F)cc(N4CCN(C)CC4)c3)nc2n1-c1ccc(=O)n(C(C)C)n1 [Compound 72] | ≤ 30 | ≤ 1000
C=CCn1c(=O)c2cnc(Nc3cc(Cl)cc(N4CCNCC4)c3)nc2n1-c1ccc(=O)n(C(C)C)n1 [Compound 73] | ≤ 30 | ≤ 1000
C=CCn1c(=O)c2cnc(Nc3cc(Cl)cc(N4CCN(C)CC4)c3)nc2n1-c1ccc(=O)n(C(C)C)n1 [Compound 74] | ≤ 30 | ≤ 1000
C=CCn1c(=O)c2cnc(Nc3cc(OC)cc(N4CCNCC4)c3)nc2n1-c1ccc(=O)n(C(C)C)n1 [Compound 76] | ≤ 30 | ≤ 1000
C=CCn1c(=O)c2cnc(Nc3ccc(N4CC(N(C)C)C4)cc3)nc2n1-c1ccc(=O)n(C(C)C)n1 [Compound 77] | ≤ 30 | ≤ 1000
C=CCn1c(=O)c2cnc(Nc3ccc(N4CC(N(C)C)C4)c(C)c3)nc2n1-c1ccc(=O)n(C(C)C)n1 [Compound 78] | ≤ 30 | ≤ 1000
C=CCn1c(=O)c2cnc(Nc3ccc(N4CC(N(C)C)C4)c(OC)c3)nc2n1-c1ccc(=O)n(C(C)C)n1 [Compound 79] | ≤ 30 | ≤ 1000
C=CCn1c(=O)c2cnc(Nc3ccc(N4CC(N5CCC5)C4)cc3)nc2n1-c1ccc(=O)n(C(C)C)n1 [Compound 80] | ≤ 30 | 1000 to 3000
C=CCn1c(=O)c2cnc(Nc3ccc(N4CC(N5CCC5)C4)c(C)c3)nc2n1-c1ccc(=O)n(C(C)C)n1 [Compound 81] | ≤ 30 | ≤ 1000

Compound | IC50 (Wee-1 kinase) [nM] | IC50 (HT29 cells) [nM]
C=CCn1c(=O)c2cnc(Nc3ccc(N4CC(N5CCC5)C4)c(OC)c3)nc2n1-c1ccc(=O)n(C(C)C)n1 [Compound 82] | ≤ 30 | ≤ 1000
C=CCn1c(=O)c2cnc(Nc3ccc(N4CC(N5CCCC5)C4)cc3)nc2n1-c1ccc(=O)n(C(C)C)n1 [Compound 83] | ≤ 30 | ≤ 1000
C=CCn1c(=O)c2cnc(Nc3ccc(N4CC(N5CCCC5)C4)c(C)c3)nc2n1-c1ccc(=O)n(C(C)C)n1 [Compound 84] | ≤ 30 | ≤ 1000
C=CCn1c(=O)c2cnc(Nc3ccc(N4CC(N5CCCC5)C4)c(OC)c3)nc2n1-c1ccc(=O)n(C(C)C)n1 [Compound 85] | ≤ 30 | ≤ 1000
C=CCn1c(=O)c2cnc(Nc3ccc(N4CCC(N5CCC5)CC4)cc3)nc2n1-c1ccc(=O)n(C(C)C)n1 [Compound 86] | ≤ 30 | ≤ 1000
C=CCn1c(=O)c2cnc(Nc3ccc(N4CCC(N5CCC5)CC4)c(C)c3)nc2n1-c1ccc(=O)n(C(C)C)n1 [Compound 87] | ≤ 30 | ≤ 1000
C=CCn1c(=O)c2cnc(Nc3ccc(N4CCC(N5CCC5)CC4)c(OC)c3)nc2n1-c1ccc(=O)n(C(C)C)n1 [Compound 88] | ≤ 30 | ≤ 1000
C=CCn1c(=O)c2cnc(Nc3ccc(N4CCC(N5CCCC5)CC4)cc3)nc2n1-c1ccc(=O)n(C(C)C)n1 [Compound 89] | ≤ 30 | ≤ 1000
C=CCn1c(=O)c2cnc(Nc3ccc(N4CCC(N5CCCC5)CC4)c(C)c3)nc2n1-c1ccc(=O)n(C(C)C)n1 [Compound 90] | ≤ 30 | ≤ 1000
C=CCn1c(=O)c2cnc(Nc3ccc(N4CCC(N5CCCC5)CC4)c(OC)c3)nc2n1-c1ccc(=O)n(C(C)C)n1 [Compound 91] | ≤ 30 | ≤ 1000
C=CCn1c(=O)c2cnc(Nc3ccc(N4CC[C@H](N(C)C)C4)cc3)nc2n1-c1ccc(=O)n(C(C)C)n1 [Compound 92] | ≤ 30 | ≤ 1000
C=CCn1c(=O)c2cnc(Nc3ccc(N4CC[C@H](N(C)C)C4)c(C)c3)nc2n1-c1ccc(=O)n(C(C)C)n1 [Compound 93] | ≤ 30 | ≤ 1000
C=CCn1c(=O)c2cnc(Nc3ccc(N4CC[C@H](N(C)C)C4)c(OC)c3)nc2n1-c1ccc(=O)n(C(C)C)n1 [Compound 94] | ≤ 30 | ≤ 1000
C=CCn1c(=O)c2cnc(Nc3ccc(N4CC[C@@H](N(C)C)C4)cc3)nc2n1-c1ccc(=O)n(C(C)C)n1 [Compound 95] | ≤ 30 | ≤ 1000
C=CCn1c(=O)c2cnc(Nc3ccc(N4CC[C@@H](N(C)C)C4)c(C)c3)nc2n1-c1ccc(=O)n(C(C)C)n1 [Compound 96] | ≤ 30 | ≤ 1000
C=CCn1c(=O)c2cnc(Nc3ccc(N4CC[C@@H](N(C)C)C4)c(OC)c3)nc2n1-c1ccc(=O)n(C(C)C)n1 [Compound 97] | ≤ 30 | ≤ 1000
C=CCn1c(=O)c2cnc(Nc3ccc(N4CCC(N(C)C)CC4)cc3)nc2n1-c1ccc(=O)n(C(C)C)n1 [Compound 98] | ≤ 30 | ≤ 1000
C=CCn1c(=O)c2cnc(Nc3ccc(N4CCC(N(C)C)CC4)c(C)c3)nc2n1-c1ccc(=O)n(C(C)C)n1 [Compound 99] | ≤ 30 | ≤ 1000
C=CCn1c(=O)c2cnc(Nc3ccc(N4CCC(N(C)C)CC4)c(OC)c3)nc2n1-c1ccc(=O)n(C(C)C)n1 [Compound 100] | ≤ 30 | ≤ 1000
C=CCn1c(=O)c2cnc(Nc3ccc(N4CCC(N)CC4)cc3)nc2n1-c1ccc(=O)n(C(C)C)n1 [Compound 101] | ≤ 30 | 1000 to 3000
C=CCn1c(=O)c2cnc(Nc3ccc(N4CCC(N)CC4)c(C)c3)nc2n1-c1ccc(=O)n(C(C)C)n1 [Compound 102] | ≤ 30 | ≤ 1000
C=CCn1c(=O)c2cnc(Nc3ccc(N4CCC(N)CC4)c(OC)c3)nc2n1-c1ccc(=O)n(C(C)C)n1 [Compound 103] | ≤ 30 | ≤ 1000
C=CCn1c(=O)c2cnc(Nc3ccc(N4CCC(NC)CC4)cc3)nc2n1-c1ccc(=O)n(C(C)C)n1 [Compound 104] | ≤ 30 | ≤ 1000
C=CCn1c(=O)c2cnc(Nc3ccc(N4CCC(NC)CC4)c(C)c3)nc2n1-c1ccc(=O)n(C(C)C)n1 [Compound 105] | ≤ 30 | ≤ 1000
C=CCn1c(=O)c2cnc(Nc3ccc(N4CCC(NC)CC4)c(OC)c3)nc2n1-c1ccc(=O)n(C(C)C)n1 [Compound 106] | ≤ 30 | ≤ 1000
C=CCn1c(=O)c2cnc(Nc3ccc(N4CCC(C)(N)CC4)cc3)nc2n1-c1ccc(=O)n(C(C)C)n1 [Compound 107] | ≤ 30 | ≤ 1000
